Common to all, as to format: in vivo, mouse (outbred Swiss Webster)
For assay [1], the system named is neutrophil CD11b. The assay can be described thus: Peritoneal fluid neutrophil CD11b expression (flow cytometry). Particulars: 24 hours after CLP; nNIF 1 mg/kg or meropenem 25 mg/kg at 4 and 10 hours; compared to scrambled peptide control-treated CLP mice. On the procedure: Twenty-four hours after CLP or sham surgery, total white blood cell and differential neutrophil counts were determined both in whole blood samples collected from orbital vein using heparinized capillaries tubes and peritoneal fluid by washing with 3 mL of PBS, respectively. Then, samples were incubated with CD45 APC-Cy7 (Biolegend), CD11b PE-Cy7 (EBioscience), Ly6G BV510 (Biolegend), and CD16/CD32 (Fc-block, EBioscience) for 30 minutes at 37 °C. Thirty minutes later, cells were washed, fixed, and ran on a Beckman Coulter Cytoflex located in the University of Utah Flow Cytometry Core.

Assay [2] relates to aerobic bacteria in peritoneal fluid. The assay can be described thus: Peritoneal fluid aerobic bacterial colony forming units. Particulars: 24 hours after CLP; nNIF 1 mg/kg or meropenem 25 mg/kg at 4 and 10 hours; serial dilution, LB-agar, 37°C 24 hours; N=5-8. On the procedure: Peritoneal fluid cytokines were analyzed using a mouse Cytokine/Chemokine Panel I Multiplex Array (Millipore Sigma catalog# HCYTMAG60-PMX41) according to manufacturer’s instructions on a Luminex 200 instrument. Bacterial counts in whole blood and peritoneal lavage were determined 24 hours after CLP. Briefly, peritoneal fluid and blood samples were collected, serially diluted, plated on LB-agar dishes, and incubated at 37°C for 24 hours. The number of bacterial colonies was counted and expressed as CFU/mL.

Assay [3] has as its system neutrophil extracellular traps (NETs), peritoneal fluid. The assay can be described thus: Peritoneal fluid NET formation (confocal live cell imaging, MPO-DNA complex ELISA). Particulars: 24 hours after CLP; nNIF 1 mg/kg IV or meropenem 25 mg/kg IP at 4 and 10 hours after CLP; compared to vehicle, scrambled peptide and meropenem groups; N=5-9. On the procedure:
We evaluated mouse NET formation via live cell imaging with confocal microscopy as previously described ([12]). Sham mice and CLP animals from all experimental groups were euthanized by CO2 inhalation and the peritoneal fluid was collected. An aliquot of 100 μL of the peritoneal fluid was placed on glass coverslips coated with poly-L-lysine for 1 hour at 37°C in 5% CO2/95% air. NET formation was assessed using cell-permeable (SYTO Green, Molecular Probes) and cell-impermeable (SYTOX Orange, Molecular Probes) DNA fluorescent stains. Using a FV3000 1X81 confocal microscope and FluoView software (Olympus) with 20X and 60X objectives, we obtained z-series images over a range of 20 μm with a 1 μm step size for each field. We processed these images using FluoView (Olympus), Photoshop (Adobe), and ImageJ (NIH) software. An in-house ELISA was used to quantify MPO-DNA complexes in plasma and peritoneal fluid from sham and CLP mice 24 hours after the surgical procedure ([24], [27]). Briefly, after overnight coating with anti-MPO capture antibody in calcium carbonate coating buffer (2 µg/ml; 0400-0002, Bio-Rad) at 4°C, a 96-well plate was blocked with 2.5% bovine serum albumin in PBS for 2 hours at room temperature. The plate was subsequently washed, before incubating for 90 minutes at room temperature with 10% peritoneal fluid in blocking buffer. […]

In assay [4] the test system is aerobic bacteria in whole blood. In words: Whole blood aerobic bacterial colony forming units. To be noted: for peripheral blood bacterial CFUs at 24 hours: 24 hours after CLP, nNIF 1 mg/kg or meropenem 25 mg/kg at 4 and 10 hours, serial dilution, LB-agar, 37°C 24 hours, N=5-8. On the procedure:
Peritoneal fluid cytokines were analyzed using a mouse Cytokine/Chemokine Panel I Multiplex Array (Millipore Sigma catalog# HCYTMAG60-PMX41) according to manufacturer’s instructions on a Luminex 200 instrument. […] Briefly, peritoneal fluid and blood samples were collected, serially diluted, plated on LB-agar dishes, and incubated at 37°C for 24 hours. The number of bacterial colonies was counted and expressed as CFU/mL.

Assay [5] deals with neutrophil extracellular traps (NETs), plasma. The assay can be described thus: Plasma NET formation (MPO-DNA complex ELISA). Particulars: 24 hours after CLP; for plasma MPO-DNA complexes compared to other CLP treatment groups: nNIF 1 mg/kg IV or meropenem 25 mg/kg IP at 4 and 10 hours after CLP, N=3-5 per group, two experiments. On the procedure:
An in-house ELISA was used to quantify MPO-DNA complexes in plasma and peritoneal fluid from sham and CLP mice 24 hours after the surgical procedure ([24], [27]). Briefly, after overnight coating with anti-MPO capture antibody in calcium carbonate coating buffer (2 µg/ml; 0400-0002, Bio-Rad) at 4°C, a 96-well plate was blocked with 2.5% bovine serum albumin in PBS for 2 hours at room temperature. The plate was subsequently washed, before incubating for 90 minutes at room temperature with 10% peritoneal fluid in blocking buffer. The plate was washed five times, and then incubated for 90 minutes at room temperature with anti-DNA detection antibody (1:20; Cell Death detection ELISA, 11544675001, Sigma). After five washes, the plate was developed with TMB substrate solution (Sigma).

Assay [6] has as its system peritoneal fluid and stool microbiomes. The assay can be described thus: 16S rRNA gene sequencing of peritoneal fluid and stool microbiomes. Particulars: CLP-treated mice; for relative abundance of Enterobacteriaceae in stool and peritoneal fluid: ANCOM-BC, relative to vehicle; for Bray-Curtis distance of peritoneal fluid microbiome from stool microbiome: each group compared to vehicle. The protocol:
Libraries were constructed for sequencing approximately 460 bp of the variable V3 and V4 regions of 16S rRNA using a two-step PCR process. Genomic DNA (5 to 20 ng) was PCR amplified for 14 cycles using the Quick-16S Primer Set V3-V4 (Zymo Research cat# D6405-2-400) with NEBNext Ultra II Q5 Master Mix (NEB cat# M0544). Dual unique indexing adapters (Illumina cat#20027213) were added to the amplicons during a second PCR reaction (6 cycles). 16S libraries were qualified on an Agilent Technologies 4150 TapeStation using a D1000 ScreenTape assay (cat# 5067-5582 and 5067-5583, respectively) and the molarity of adapter-modified molecules was defined by quantitative PCR using the Kapa Biosystems Kapa Library Quant Kit (cat#KK4824). Libraries were normalized and pooled (12 pM) and chemically denatured along with 15% molar representation of PhiX library in preparation for sequencing on an Illumina MiSeq instrument in paired-end 300 cycle mode. Raw 16S sequences were read in and processed with […] 2021.11 plugins ([33]). In brief, demultiplexed and quality-filtered sequences were first trimmed of primer and linker sequences with the Cutadapt plugin, then denoised to ASVs using DADA2 ([34], [35]). […] Diversity metrics, distances, and statistical significance of beta diversity groupings by permanova were further calculated within […]2 artefacts were then read into R and genera tested for differential abundances using ANCOM-BC implemented in the microbiomeMarker package ([37], [38]). Scripts used for processing and analyses have been deposited along with processed QIIME2 artifact files at: https://github.com/wzacs1/Araujo_nNIF. Raw sequences have been deposited in the NCBI SRA under BioProject accession PRJNA884333.

Where no end group is shown, it is not given here.

This is an account of results in paper PMC9888311, “Neonatal NET-Inhibitory Factor improves survival in the cecal ligation and puncture model of polymicrobial sepsis by inhibiting neutrophil extracellular traps” (Frontiers in Immunology, 2023).

With `C[C@@H](O)[C@H]1C(=O)N2C(C(=O)O)=C(S[C@@H]3CN[C@H](C(=O)N(C)C)C3)[C@H](C)[C@H]12` [meropenem, reference compound], the “neutrophil CD11b expression in peritoneal fluid” value in assay [1] is on record as “no decrease”. Also, the “peritoneal fluid bacterial CFUs at 24 hours” value in assay [2] is given as “statistically significant decrease”. The “peritoneal fluid NET formation (MPO-DNA complexes, confocal microscopy)” value in assay [3] was “equivalent between the vehicle and meropenem arms”. In addition, in assay [4], the “peripheral blood bacterial CFUs at 24 hours” value is listed as “statistically significant decrease”. The “plasma MPO-DNA complexes compared to other CLP treatment groups” value in assay [5] is “equivalent between the vehicle and meropenem arms”. Also, the “plasma MPO-DNA complexes compared to the sham surgery group” value in assay [5] (nNIF-SCR 1 mg/kg IV or meropenem 25 mg/kg IP at 4 and 10 hours after CLP) is “significantly increased MPO-DNA complexes”. In assay [6], the “relative abundance of Enterobacteriaceae in stool and peritoneal fluid” value is “decreased in stool and peritoneal fluid”; the “Bray-Curtis distance of peritoneal fluid microbiome from stool microbiome” value is “more similar stool and peritoneal microbiomes”.

“KFNKPFVFLMIEQNTKSPLFMGKVVNPTQ-OH [nNIF, neonatal NET-Inhibitory Factor]”: the “neutrophil CD11b expression in peritoneal fluid” value in assay [1] was “significantly decreased neutrophil CD11b expression”. Also, in assay [2], the “peritoneal fluid bacterial CFUs at 24 hours” value is “higher CFUs”. Moreover, the “peritoneal fluid NET formation (MPO-DNA complexes, confocal microscopy)” value in assay [3] is “reduced NET formation qualitatively and quantitatively”. The “peripheral blood bacterial CFUs at 24 hours” value in assay [4] is “higher CFUs”. In addition, the “whole blood bacterial CFUs at 96 hours” value in assay [4] (96 hours after CLP, nNIF 1 mg/kg, elevated at 24 hours, meropenem comparator 8 mg/kg, N=3-4) is given as “returned to meropenem alone treatment levels”. Further, the “plasma MPO-DNA complexes compared to other CLP treatment groups” value in assay [5] is “significant reduction in MPO-DNA complexes”. Moreover, in assay [6] (16S rRNA V3/V4 sequencing, N=5-7 per group), the “peritoneal fluid and stool microbiomes (beta diversity, Bray-Curtis, PERMANOVA)” value was “did not alter the peritoneal fluid and stool microbiomes”. Further, in assay [6], the “relative abundance of Enterobacteriaceae in stool and peritoneal fluid” value is “did not affect their abundances”; the “Bray-Curtis distance of peritoneal fluid microbiome from stool microbiome” value is reported as “as dissimilar from their stool counterparts as were vehicle controls”.
